{"source": "patent US20060292255A1", "about": "“Pharmaceutical and therapeutic compositions derived from Garcinia mangostana L plant” (priority 2004, published 2006)", "key": {"cAMP phosphodiesterase": {"test_system": "cAMP phosphodiesterase", "conditions": "Chairungsrilerd and Takeuchi et al., 1996; cited from earlier work"}, "[1]": {"test_system": "mammalian cells in culture", "test": "Toxicity Study 2: cytotoxicity of serially diluted extract, microscopic scoring", "format": "cell-based", "conditions": "control media/extracts undiluted", "protocol": "The purpose of this study was to evaluate a serially diluted extract of a 40% mangosteen pericarp test article for cytotoxicity to mammalian cells in culture. The test article was incubated in an appropriate volume of E-MEM in a sterile vessel for 24 to 25 hours at 37 f 1° C. After measures were taken to create a clear supernatant, a series of eight (8) dilutions of the extract were prepared in E-MEM in a two-fold dilution sequence. After the dilutions were prepared, the maintenance culture media was removed from test culture wells and replaced with 1 ml of test media dilutions in triplicate wells. The positive control media, test article extract, and control extracts were added at the same time to the culture plate in triplicate wells. The plates were incubated for 72 hours at 37±1° C. in a humidified atmosphere of 5±1% CO2 in air. The cultures were evaluated for cytotoxic effects by microscopic examination at 24,48 and 72±4 hours of incubation and the results scored and recorded. After the 24 hour extraction the liquid was transferred to a 50 mL conical tube and centrifuged for 10 minutes at 3000 rpm. A small pellet of powder created by the separation was discarded, the resultant supernatant was clear with a light brown color and a pH of 7.5.\nCriteria for evaluating cytotoxicity included morphologic changes in cells, such as granulation, crenation, or rounding, and loss of viable cells from the monolayer by lysis or detachment. The validity of the test requires that negative control cultures maintain a healthy normal appearance throughout the duration of the test. Degrees of toxicity are scored as in Table 1, above: […]"}, "[2]": {"test_system": "L-929 mouse fibroblast cells", "test": "Toxicity Study 1: cytotoxicity of serially diluted extract, microscopic scoring", "format": "cell-based", "conditions": "control media/extracts undiluted; triplicate wells", "protocol": "The purpose of this study was to evaluate an extract of mangosteen for its level of cytotoxicity in a mammalian system. Accordingly, a serially diluted extract of a 10% mangosteen pericarp test article for cytotoxicity to mammalian cells in culture (L-929 mouse fibroblast cells, from the American Type Culture Collection: CCL-1). The test article, originally a 10% mangosteen preparation) was incubated in an appropriate volume of cell culture medium (Earle's Minimal Essential Medium, E-MEM) in a sterile vessel for 24 to 25 hours at 37 ±1° C. At the end of the extraction period, the extract was decanted from the test article. A series of eight (8) dilutions of the extract was prepared in culture medium in a two-fold dilution sequence. After the dilutions were prepared, the maintenance culture medium was removed from test culture wells and replaced with 1 ml of article test dilutions. […] The cultures were evaluated for cytotoxic effects by microscopic examination at 24, 48, and 72±4 hours of incubation, and the results scored and recorded. […]\nCriteria for evaluating cytotoxicity included morphologic changes in cells, such as granulation, crenation, or rounding, and loss of viable cells from the monolayer by lysis or detachment. […] Degrees of toxicity are scored according to the scheme in Table 2: […]"}, "COX 1": {"target": "COX 1 (Homo sapiens, UniProt P23219)", "sequence (P23219 24-599)": "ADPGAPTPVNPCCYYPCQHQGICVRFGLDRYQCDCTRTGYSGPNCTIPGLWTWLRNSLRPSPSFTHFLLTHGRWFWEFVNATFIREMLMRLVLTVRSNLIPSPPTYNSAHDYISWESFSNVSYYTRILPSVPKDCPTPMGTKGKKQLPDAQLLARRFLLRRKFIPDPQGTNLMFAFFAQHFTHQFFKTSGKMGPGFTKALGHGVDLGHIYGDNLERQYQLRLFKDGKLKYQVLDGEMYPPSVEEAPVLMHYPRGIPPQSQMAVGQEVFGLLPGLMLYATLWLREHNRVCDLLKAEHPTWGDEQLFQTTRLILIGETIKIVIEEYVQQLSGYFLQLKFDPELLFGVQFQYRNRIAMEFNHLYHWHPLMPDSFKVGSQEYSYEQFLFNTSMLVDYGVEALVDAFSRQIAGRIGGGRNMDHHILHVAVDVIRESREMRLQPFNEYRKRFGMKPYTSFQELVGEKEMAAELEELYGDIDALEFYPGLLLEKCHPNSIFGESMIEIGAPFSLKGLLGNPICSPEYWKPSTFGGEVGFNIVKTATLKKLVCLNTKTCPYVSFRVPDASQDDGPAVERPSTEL", "conditions": "Nakatani et al., 2002, 2004; cited from earlier work"}, "DNA topoisomerase": {"test_system": "DNA topoisomerase", "conditions": "Tosa et al., 1997; cited from earlier work"}, "serotonin receptors": {"test_system": "serotonin receptors", "conditions": "Chairungsrilerd et al., 1996, 1998; cited from earlier work"}}, "data": [{"smiles": "COc1c(O)cc2oc3cc4c(c(O)c3c(=O)c2c1CC=C(C)C)CC(O)C(C)(C)O4", "note": "(centres unmarked) [Mangostanol]", "values": [{"measurement": "inhibition of cAMP phosphodiesterase", "setting": "cAMP phosphodiesterase", "result": "strong inhibition"}]}, {"smiles": "[Cl][Cd][Cl]", "note": "[Positive Control, CdCl2]", "values": [{"measurement": "Cytoxicity Scores 24 Hr", "setting": "[1]", "result": "4/4/4"}, {"measurement": "Cytoxicity Scores 48 Hr", "setting": "[1]", "result": "4/4/4"}, {"measurement": "Cytoxicity Scores 72 Hr", "setting": "[1]", "result": "4/4/4"}, {"measurement": "Cytotoxicity Scores at 72 Hr", "setting": "[2]", "result": "4/4/4"}]}, {"smiles": "CC(C)=CCc1c(O)cc2oc3cc(O)c(O)c(CC=C(C)C)c3c(=O)c2c1O", "note": "[gamma-mangostin]", "values": [{"measurement": "inhibition of the activity of cyclooxygenase COX 1", "setting": "COX 1", "result": "directly inhibit the activity"}, {"measurement": "inhibition of DNA topoisomerase", "setting": "DNA topoisomerase", "result": "inhibits"}, {"measurement": "action on serotonin receptors", "setting": "serotonin receptors", "result": "antagonist"}]}]}
